Assay results as given in US4668620A, “Reducing background interference activity in enzyme-label immunoassays” (Syntex (U.S.A.) Inc., priority 1984, dated 1987).

System: β-galactosidase
Assay: Testing effects of serum on native enzyme activity with DUG
Assay type: biochemical
Conditions: 0.02 mM DUG, 37°, 10 second delay, 30 second read
Method: (2) Testing effects of serum on native enzyme activity with DUG:
The procedure of c (1) above was followed using 50 µl of 1.75×PBS,N3, Mg+0.5% RSA and 50 μ1 β-galactosidase in place of serum and conjugate, respectively, and […] of 0.02mM DUG in 1.75×PBX, N3, Mg +0.5% RSA.
The fluorescence rate was measured at 37° , 10 second delay, 30 second read.

Substance: β-galactosidase: native active enzyme used as label in the immunoassay
- ΔF/30 sec., Buffer (native enzyme in buffer): 250 ΔF/30 sec.
- ΔF/30 sec., Serum (native enzyme in serum): 230 ΔF/30 sec.
